Legend:
[1] = biological target: VIM-2 (Escherichia coli, UniProt Q5U7L7); assay: Enzyme activity: determination of IC50 (VIM-2); format: biochemical; settings: read-out: VIM2 IC50
[2] = biological target: IMP-1 (Serratia marcescens, UniProt P52699); assay: Enzyme activity: determination of IC50, fluorescence assay with CCF2-FA substrate (IMP-1); format: biochemical; settings: 2 pM enzyme, 1.25 μM CCF2-FA, 2 hours at 25° C.; read-out: IMP1 IC50
Procedure: (§1) The Class B enzyme activities were measured in the presence of the test inhibitor in a fluorescence assay against a commercially available substrate consisting of a cephalosporin core linking 7-hydroxycoumarin to fluorescein (CCF2-FA). The enzyme (NDM-1, IMP-1 or VIM-1) and the substrate were diluted in 100 mM KH2PO4 buffer (pH 7) containing 0.005% Tween-20 and 10 μM ZnSO4. In the assay, the final concentration of enzyme was 1 pM, 2 pM and 30 pM for NDM-1, IMP-1 and VIM-1, respectively, and the final concentration of CCF2-FA was 1.25 μM. The test inhibitor was dissolved in dimethylsulfoxide and diluted 1:50 in the assay, resulting in a final concentration range of 20 μM to 0.00063 μM. In a 384-well microplate, the test inhibitor was incubated with the metallo-β-lactamase enzyme and the substrate for 2 hours at 25° C. Fluorescence at 460 nm following excitation at 405 nm was measured. The IC50 value was determined from semi-logarithmic plots of enzyme inhibition versus inhibitor concentration, with a curve generated using a 4-parameter fit.

[3] = system: Klebsiella pneumoniae expressing VIM-1 (IHMA599644); assay: Antibiotic potentiation activity: synergistic concentration (MITC95) with imipenem; format: cell-based; settings: imipenem 1 μg/mL; lowest concentration inhibiting 95% of growth; 35° C., 22-24 hours
Procedure: (§2) The bacterial strains tested included the clinical strains Escherichia coli expressing NDM-1 (CLB30005, CLB30016), Serratia marcescens expressing IMP-1 (CL5741), and Klebsiella pneumoniae expressing VIM-1 (IHMA599644). Inhibitor activity was measured in the presence and absence of imipenem in a 384-well microplate.
(§3) The clinical strains CLB30016, CL5741 and IHMA599644 were grown on trypticase soy agar containing 5% sheep's blood. The bacteria on agar plates were incubated at 35° C. with humidity overnight. The following day, individual colonies from each clinical strain were picked and resuspended in 5 mL saline to attain an OD600 of 0.14, 0.11, 0.15 and 0.13, for CLB30016, CL5741 and IHMA599644, respectively. These were further diluted 1:100 into 1.1× CAMHB and used to inoculate the test wells as described below.
(§4) Imipenem in 10 mM 3-(N-morpholino)propanesulfonic acid (MOPS, pH 7) was stored in single use aliquots at −80° C. […] On the day of the assay, 4 μl of antibiotic was added to 45 μl of bacteria followed by 1 μl of test compound and mixed by pipetting and with an orbital shaker. The concentration of antibiotic used in the assay was 1 μg/mL. Microplates were covered and incubated at 35° C. for 22 hours to 24 hours. At the end of the incubation, absorbance was determined using a spectrophotometer. The synergistic concentration of MBLI was determined by identifying the lowest concentration of test compound in the presence of a given concentration of antibiotic that was required to inhibit 95% of the growth of the bacteria. The results for Examples 1-209 are reported in Table 1, expressed as the concentration of compound that potentiated the action of antibiotic (imipenem) affecting 95% inhibition of bacterial growth (MITC95).

[4] = system: Escherichia coli expressing NDM-1 (CLB30016); assay: as above; format: cell-based; settings: imipenem 1 μg/mL; lowest concentration inhibiting 95% of growth; 35° C., 22-24 hours
Procedure: as §2, §3, §4

[5] = system: Serratia marcescens expressing IMP-1 (CL5741); assay: as above; format: cell-based; settings: imipenem 1 μg/mL; lowest concentration inhibiting 95% of growth; 35° C., 22-24 hours
Procedure: as §2, §3, §4

[6] = system: P. aeruginosa MB9798 (efflux WT, IMP-1); assay: Efflux: concentration of MBL inhibitor restoring susceptibility to imipenem (MITC95), efflux+ strain; format: cell-based, Pseudomonas aeruginosa; settings: imipenem at 2 μg/mL in the presence of a class A, C, D serine β-lactamase inhibitor closely related to relebactam
Source text: (§5) In order to assess the contribution of efflux to lack of whole cell inhibition of metallo-beta-lactamase inhibitors of formula I, tool strains were constructed. The strain background is Pseudomonas aeruginosa PAO1. A wild-type (MB5919) and an isogenic strain in which multiple efflux pumps have been disrupted genetically were used. The MBL IMP-1, obtained from a clinical isolate was introduced into the strain pair by the following process:
(§6) Plasmid DNA (encoding IMP-1) was extracted from CL 5673 (IMP-1, P. aeruginosa clinical strain) by standard techniques. The plasmid DNA was transformed into parental MB5919 (oprD+, efflux+, inducible AmpC) and MB5890 (oprD+, efflux−, inducible AmpC) isogenic strains by electroporation. These transformed strains were plated onto cation-adjusted Muller-Hinton agar plates containing ceftazidime at 32 μg/mL (MB5919) and 16 μg/mL (MB5890) to select for those cells in which the IMP-1-expressing plasmid was introduced successfully, resulting in resistance to ceftazidime. Agarose-gel electrophoresis of PCR product for IMP-1 from the successful transformants was used to compare to control and to the original strain from which the plasmid was obtained, confirming transfer of the IMP-1 gene (data not shown).
(§7) The strain set was then used as a pair to determine the effect of metallo-β-lactamase inhibitors of Formula Ion the MIC of imipenem and/or ceftazidime. A fixed concentration of antibiotic is included in standard microbroth MIC tests, usually at the CLSI breakpoint concentration. A fixed amount of a class A/C beta-lactamase inhibitor is also included to inhibit the resident Pseudomonas AmpC enzyme. A serial titration of the metallo-β-lactamase inhibitor was included and the concentration of metallo-β-lactamase inhibitor which restores susceptibility of the strain to the included antibiotic was recorded. That concentration of metallo-β-lactamase inhibitor was then compared between the two strains to determine the fold difference between the efflux+(MB9798) and efflux−(MB9799) strains, which indicates n the extent to which the MBLi is subject to efflux.

[7] = biological target: VIM-1 (Pseudomonas aeruginosa, UniProt A0A0F7KYQ8); assay: Enzyme activity: determination of IC50, fluorescence assay with CCF2-FA substrate (VIM-1); format: biochemical; settings: 30 pM enzyme, 1.25 μM CCF2-FA, 2 hours at 25° C.; read-out: VIM1 IC50
Procedure: as §1

[8] = biological target: NDM-1 (Klebsiella pneumoniae, UniProt C7C422); assay: Enzyme activity: determination of IC50, fluorescence assay with CCF2-FA substrate (NDM-1); format: biochemical; settings: 1 pM enzyme, 1.25 μM CCF2-FA, 2 hours at 25° C.; read-out: NDM1 IC50
Chain of NDM-1 (C7C422 29-270, looked up, species assumed): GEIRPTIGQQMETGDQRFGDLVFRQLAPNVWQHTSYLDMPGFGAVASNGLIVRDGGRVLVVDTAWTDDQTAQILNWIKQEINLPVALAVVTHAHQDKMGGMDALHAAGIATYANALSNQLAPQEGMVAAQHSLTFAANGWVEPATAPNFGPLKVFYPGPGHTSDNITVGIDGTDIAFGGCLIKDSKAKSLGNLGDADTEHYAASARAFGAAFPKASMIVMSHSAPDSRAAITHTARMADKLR
Procedure: as §1

[9] = system: P. aeruginosa MB9799 (efflux mutant, IMP-1); assay: Efflux: concentration of MBL inhibitor restoring susceptibility to imipenem (MITC95), efflux− strain; format: cell-based, Pseudomonas aeruginosa; settings: imipenem at 2 μg/mL in the presence of a class A, C, D serine β-lactamase inhibitor closely related to relebactam
Source text: as §5, §6, §7

Chain of IMP-1 (P52699 19-246, looked up, species assumed): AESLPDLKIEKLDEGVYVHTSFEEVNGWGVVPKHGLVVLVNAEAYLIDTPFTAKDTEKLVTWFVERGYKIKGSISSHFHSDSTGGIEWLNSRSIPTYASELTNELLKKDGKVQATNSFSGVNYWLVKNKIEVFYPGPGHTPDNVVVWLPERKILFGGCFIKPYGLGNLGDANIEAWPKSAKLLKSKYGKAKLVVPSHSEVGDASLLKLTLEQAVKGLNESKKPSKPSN

| Compound | IC50 [1] | IC50 [2] | IHMA599644 K.pneumoniae MITC95 uM VIM [3] | CLB30016 E.coli MITC95 NDM [4] | CL5741 S.marcescens MITC95 uM IMP [5] | MB9798 MITC95 P. aeruginosa Efflux WT [6] | IC50 [7] | IC50 [8] | MB9799 MITC95 P. aeruginosa Efflux Mutant [9] |
| --- | --- | --- | --- | --- | --- | --- | --- | --- | --- |
| NC[C@@H](O)CNS(=O)(=O)c1ccc(N2CCn3ccnc32)c(-c2nnn[nH]2)c1S(N)(=O)=O [Example 19, (R)—N1-(3-amino-2-hydroxypropyl)-4-(2,3-dihydro-1H-imidazo[1,2-a]imidazol-1-yl)-3-(1H-tetrazol-5-yl)benzene-1,2-disulfonamide] | 9.8 nM | 12.1 nM | 3.13 µM | 0.20 µM | 0.78 µM | 6.25 µM | 5.96 nM | 1.03 nM | 1.56 µM |
| NCCNS(=O)(=O)c1ccc(N2CCn3ccnc32)c(-c2nnn[nH]2)c1S(N)(=O)=O [Example 20, N1-(2-aminoethyl)-4-(2,3-dihydro-1H-imidazo[1,2-a]imidazol-1-yl)-3-(1H-tetrazol-5-yl)benzene-1,2-disulfonamide] | 15.1 nM | 9.68 nM | 3.13 µM | 0.39 µM | 0.78 µM | 6.25 µM | 12.4 nM | 1.7 nM | 0.78 µM |
| NS(=O)(=O)c1c(S(=O)(=O)N[C@@H]2CCNC2)ccc(N2CCCc3ccncc32)c1-c1nnn[nH]1 [Example 21, 4-(3,4-dihydro-1,7-naphthyridin-1(2H)-yl)-N1-[(3R)-pyrrolidin-3-yl]-3-(1H-tetrazol-5-yl)benzene-1,2-disulfonamide] | 1.24 nM | 2.46 nM | 6.25 µM | 0.20 µM | 0.78 µM | 3.13 µM | 0.22 nM | 0.21 nM | 1.56 µM |
| NS(=O)(=O)c1c(S(=O)(=O)N[C@@H]2CCNC2)ccc(N2Cc3cccnc3C2)c1-c1nnn[nH]1 [Example 22, 4-(5,7-dihydro-6H-pyrrolo[3,4-b]pyridin-6-yl)-N1-[(3R)-pyrrolidin-3-yl]-3-(1H-tetrazol-5-yl)benzene-1,2-disulfonamide] | 2.31 nM | 0.17 nM | 6.25 µM | 0.78 µM | 3.13 µM | 3.13 µM | 0.59 nM | 0.62 nM | 1.56 µM |
| NS(=O)(=O)c1c(S(=O)(=O)N[C@@H]2CCNC2)ccc(N2CCc3cccnc3C2)c1-c1nnn[nH]1 [Example 23, 4-(5,8-dihydro-1,7-naphthyridin-7(6H)-yl)-N1-[(3R)-pyrrolidin-3-yl]-3-(1H-tetrazol-5-yl)benzene-1,2-disulfonamide] | 39 nM | 43.9 nM | 12.50 µM | 3.13 µM | 12.50 µM | 50.00 µM | 21 nM | 24.3 nM | 6.25 µM |
| NS(=O)(=O)c1c(S(=O)(=O)N[C@@H]2CCNC2)ccc(N2CCc3ncc(O)cc3C2)c1-c1nnn[nH]1 [Example 24, 4-(3-hydroxy-7,8-dihydro-1,6-naphthyridin-6(5H)-yl)-N1-[(3R)-pyrrolidin-3-yl]-3-(1H-tetrazol-5-yl)benzene-1,2-disulfonamide] | 0.74 nM | 1.39 nM | 3.13 µM | 0.39 µM | 1.56 µM | 25.00 µM | 0.19 nM | 0.28 nM | 3.13 µM |
| NS(=O)(=O)c1c(S(=O)(=O)N[C@@H]2CCNC2)ccc(N2CCc3nc(O)ccc3C2)c1-c1nnn[nH]1 [Example 25, 4-(2-hydroxy-7,8-dihydro-1,6-naphthyridin-6(5H)-yl)-N1-[(3R)-pyrrolidin-3-yl]-3-(1H-tetrazol-5-yl)benzene-1,2-disulfonamide] | 4.79 nM | 6.11 nM | 1.56 µM | 0.39 µM | 0.78 µM | 6.25 µM | 1.1 nM | 3.09 nM | 0.78 µM |
| NS(=O)(=O)c1c(S(=O)(=O)N[C@@H]2CCNC2)ccc(N2CCc3[nH]nnc3C2)c1-c1nnn[nH]1 [Example 26, N1-[(3R)-pyrrolidin-3-yl]-4-(1,4,6,7-tetrahydro-5H-[1,2,3]triazolo[4,5-c]pyridin-5-yl)-3-(1H-tetrazol-5-yl)benzene-1,2-disulfonamide] | 5.08 nM | 5.97 nM | 3.13 µM | 0.78 µM | 1.56 µM | 6.25 µM | 1.75 nM | 2.14 nM | 0.78 µM |
| Cc1cc2c(c(C)n1)CCN2c1ccc(S(=O)(=O)N[C@@H]2CCNC2)c(S(N)(=O)=O)c1-c1nnn[nH]1 [Example 27, 4-(4,6-dimethyl-2,3-dihydro-1H-pyrrolo[3,2-c]pyridin-1-yl)-N1-[(3R)-pyrrolidin-3-yl]-3-(1H-tetrazol-5-yl)benzene-1,2-disulfonamide] | 1.37 nM | 84 nM | 3.13 µM | 1.56 µM | 6.25 µM | 50.00 µM | 0.14 nM | 5 nM | 3.13 µM |
